Assay results: US4909257A, “Method for attaining in vivo tissue-specific contrast by nuclear magnetic resonance imaging” (priority 1989, dated 1990)

Assays:
[1] = Magnetic resonance imaging contrast enhancement (2 Tesla, coronal spin echo); type: in vivo, BALB/C mice; details: for MRI: increase in signal intensity in the gall bladder: in contrast to Fe-EHPG and Fe-HBED; for MRI: urinary bladder concentration: mouse, in vivo
[2] = system: normal BALB/C mice; experiment: Toxicity (acute lethality) after i.v. tail vein injection in mice; type: in vivo; details: 0.2 mL, five BALB/C mice per dose group, 7 days
Description: Solutions were prepared to evaluate the toxicity of the chelators and ferric complexes of the chelators.
A 1.2 M stock ferric solution was prepared by dissolving 32 g of FeCl3 * 6 H2 O in 100 mL of 0.1 N HCl. It was standardized by EDTA titration using Variamine Blue B indicator.
A solution or suspension of 10 mmoles of each ligand in 20 mL of water was 70-80% neutralized by reaction with NaOH. The resulting solution (pH~9) was added dropwise to a solution of 10.1 mmoles of FeCl3 in 10 mL of water. The reaction mixture was adjusted to pH 7.0 with solid NaHCO3 and stirred at 60°-80° C. for two hours. It then was ccentrifuged, and the supernatant was filtered through a 0.22 micron filter. […] Th filtrate was concentrated on a rotary evaporator, the pH adjusted to 7.0, and the volume adjusted to 20 mL.
Tiron was obtained as the sodium salt. An aqueous 0.5 M solution was treated with a 2% excess of FeCl3, and the reaction mixture was worked up as above.
A suspension of 3.6 g (10 mmoles) of EHPG in 15 mL of water was reacted with 17 mL of 2 N NaOH. The resulting dark yellow-orange solution was added dropwise to a solution of 2.7 g […] of FeCl3 * 6 H2 O in 10 mL of water. The reaction mixture was warmed to 60°-80° C. and held at that temperature for 2 hours. The thick orange-red suspension was diluted to 120 mL and heated to 90°-100° C. The hot suspension was filtered through filter aid, and the filtrate was allowed to cool to room temperature.
Rather than crystallizing the product, the pH of the reaction mixture was adjusted to 7.0 with NaHCO3 and filtered. The filtrate was used for subsequent experiments after appropriate volume adjustments and Fe determination.
For each compound at each dose, five normal BALB/C mice weighing 19-22 g were treated with test solution by injection into the tail vein. The injection volumes were approximately 0.2 mL. The behavior and condition of the mice were monitored for 1 week.

[3] = Organ distribution and clearance of 59Fe-labeled complexes; type: in vivo, BALB/C mice
Description: ^59 Fe was obtained as 0.06 M FeCl3 in 0.5 N HCl; the specific activity was approximately 20 mCi/mmole (1.2 mCi/mL). Labeled commplexes were preared by treating in a Teflon vial 10 uL of ^59 FeCl3 with 25 uL of 2.0×10^-2 M solution of ligand, followed by 0.25 mL of 0.36 M, pH 7.3 Na HEPES buffer and 0.74 mL of water. The reaction mixture was held at 80° C. for 2 hours and then treated with 0.2 mL of 0.12 M solution of Fe-ligand complex. The resulting solution was filtered through a 0.22 u filter. A 0.2 mL dose contained 0.004 mmole of Fe-chelate with 2 uCi of ^59 Fe. ^59 Fe acetate was prepared as above, but without addition of unlabeled carrier Fe acetate.
For each complex shown in FIG. 1, a group of five BALB/C mice were treated as above with 0.2 mmole/Kg of labeled Fe-complex containing approximately 2 uCi of ^59 Fe. The animals were counted immediately after injection and at 2 hours, 1, 2, 4, and 7 days. Whole body counts were obtained using a Nuclear Chicago Tobor chamber gamma counter. Raw counts were background-subtracted and back-decayed to t0, the time of injection. An ^59 Fe standard and background were counted at each time point.
After the appropriate time period, the animals were sacrificed and dissected. Organ weights were measured, and the organs were counted in a gamma counter. Due to its small size, the gall bladder was combined with the small intestine for weighing and counting. An ^59 Fe standard was also counted at each time point. Raw counts were background-subtracted and back-decayed to t0, the time of injection. Activity was computed as a fraction of injected dose per gram of tissue.

[4] = Dose needed for NMR contrast enhancement; type: in vivo; details: doses as low as

| Compound | MRI: increase in signal intensity in the gall bladder [1] | MRI: urinary bladder concentration [1] | LD-0 (maximum dose at which no mortality was observed for seven days post injection) [2] [mmol/kg] | LD-100 (minimum dose for which 100% mortality was observed for seven days post injection) [2] [mmol/kg] | other results |
| --- | --- | --- | --- | --- | --- |
| GD-DTPA [reference compound] | essentially none in the gall bladder | concentrated in the urinary bladder |  |  |  |
| CC(=O)N(O)CCCCCNC(=O)CCC(=O)N(O)CCCCCNC(=O)CCC(=O)N(O)CCCCCN [DF, Desferrioxamine B] |  |  | 0.5 | 1 |  |
| CC(=O)N([O-])CCCCCNC(=O)CCC(=O)N([O-])CCCCCNC(=O)CCC(=O)N([O-])CCCCCN.[Fe+3] [Fe--DF] | essentially none in the gall bladder | concentrated in the urinary bladder | 0.5 | 2 |  |
| O=C([O-])CN(CCO)CCN(CC(=O)[O-])CC(=O)[O-].[Fe+3] [Fe--HEDTA] |  |  |  | 0.5 |  |
| O=C([O-])C(NCCNC(C(=O)[O-])c1ccccc1[O-])c1ccccc1[O-].[Fe+3] (stereo not drawn) [Fe--EHPG] |  | concentrated in the urinary bladder | 0.9 |  | liver level of 59Fe over time ([3]; 0.2 mmole/Kg labeled Fe-complex, fraction of injected dose per gram of tissue, FIGS. 2 and 3): initially high and then decreased; large intestine levels at 6 hours ([3]; gut tissue and contents, final time of 6 hours): exceeded all of the other values; large intestine levels, up to the 2 hour time point ([3]; gut tissue and contents, up to 2 hours): started and remained lower than the liver or small intestine values; small intestine values over time ([3]; small intestine combined with gall bladder, out to 6 hours): initially low, rose to a maximum at about 1-2 hours, and then decreased out to 6 hours; time of maximum small intestine value ([3]; small intestine combined with gall bladder, printed as about): 1 to 2 h; lowest dose achieving NMR contrast enhancement [4]: 1 mg contrast agent per kilogram weight of the animal; MRI: gall bladder contrast at 50 minutes ([1]; 50 minutes post-contrast): gall bladder contrast remains markedly high; MRI: liver intensity at 50 minutes ([1]; 50 minutes post-contrast): liver intensity has decreased; MRI: gall bladder enhancement, later ([1]; gradual, post-contrast): gradually becomes brighter than the surrounding liver; MRI: liver enhancement ([1]; post-contrast, initial): first concentrate in the liver; MRI: gall bladder enhancement, initial ([1]; while agent first concentrates in the liver): gall bladder remains unenhanced |
| O=C(O)CN(CC(=O)O)[C@@H]1CCCC[C@H]1N(CC(=O)O)CC(=O)O (relative stereo) [CDTA, trans-1,2-cyclohexanediaminotetraacetic acid] |  |  | 0.05 | 0.5 |  |
